Results on 27 molecules are retold here after patent US9382254B2, “Compounds and pharmaceutical compositions thereof for the treatment of cystic fibrosis” (Galapagos NV, priority 2013, dated 2016).

For one test, the target named is T1, CFTR G551D mutant (Homo sapiens, UniProt P13569, G551D).
T1 construct: expressed in transfected cells; host or cells: HEK293 (reverse transfection with plasmid)
In words: YFP-halide influx assay for the CFTR-G551D mutation. The class given is cell-based. The following applies: HEK293 cells, forskolin 10.67 μM. The source says: The YFP halide influx assay measures the functionality of the cystic fibrosis Transmembrane Conductance regulator (CFTR) channels. The assay is used to evaluate the capacity of compounds to increase the channel opening of existing mutant CFTR channels in the membrane. It makes use of the observation that the yellow fluorescent protein (YFP) variant YFP H148Q, I152L, […] has its fluorescence substantially quenched by halide ions like Cl^− and I^−. (Galietta, Haggie, & Verkman, 2001)
For this purpose, HEK293-cells are seeded in 96 well plates. During seeding, the cells are reverse-transfected with plasmid vectors that direct the expression of the CFTR G551D mutant and of the YFP reporter. Cells are incubated at 37° C., 5% CO2 for 24 hours so as to allow for sufficient expression of the CFTR protein.
The I^−-induced quenching of fluorescence is recorded immediately after injection of I^− for 7 seconds. The capacity of a compound to increase the channel opening is directly correlated with the decrease in fluorescence, and is expressed as (1-(fluorescence after 7 seconds (F)/fluorescence before injection (F0))) and an EC50 can be derived from a (1-F/F0) vs compound concentration plot.

A further test addresses T2, CFTR ΔF508 mutant (Homo sapiens, UniProt P13569, DEL508-508).
T2 construct: expressed in transfected cells; host or cells: CFBE41o- (adenoviral transduction)
In words: YFP-halide influx assay for the CFTR-ΔF508 mutation (384 well, FDSS/μCell). The class given is cell-based. As to conditions: CFBE41o- cells, CFTR-ΔF508, 1×D-PBS, fluorescence after 36 seconds. The text has this: The YFP halide influx assay measures the functionality of the cystic fibrosis Transmembrane Conductance regulator (CFTR) channels in the cystic fibrosis bronchial epithelium cell line CFBE41o-. The assay is used to evaluate the capacity of compounds to increase the open probability of existing CFTR channels in the membrane. It makes use of the observation that the yellow fluorescent protein (YFP) variant YFP H148Q, I152L has its fluorescence substantially quenched by halide ions like Cl— and I—. (Galietta, Haggie, & Verkman, 2001) (Nagai, et al., 2002)
For this purpose, CFBE41o-cells are seeded in 384 well plates (3000 CFBE cells/well). One day after seeding, the CFBE cells are transduced with adenoviral vectors that direct the expression of the CFTR ΔF508 mutant and of the YFP reporter. Cells are incubated at 27° C., 5% CO2 for 24 hours so as to allow for the proper folding and migration to the membrane of the CFTR channel or treated with a CFTR modulator during 24 h at 37° C.
The I— induced quenching of fluorescence is recorded […] immediately after injection of I— for 2 min on an FDSS/μCell (Hamamatsu). The capacity of a compound to increase the channel opening is directly correlated with the decrease in fluorescence, and is expressed as (1-(fluorescence after 36 seconds (F)/fluorescence before injection (F0))) and an EC50 can be derived from a (1-F/F0) vs compound concentration plot.

T1 sequence (P13569 whole entry G551D): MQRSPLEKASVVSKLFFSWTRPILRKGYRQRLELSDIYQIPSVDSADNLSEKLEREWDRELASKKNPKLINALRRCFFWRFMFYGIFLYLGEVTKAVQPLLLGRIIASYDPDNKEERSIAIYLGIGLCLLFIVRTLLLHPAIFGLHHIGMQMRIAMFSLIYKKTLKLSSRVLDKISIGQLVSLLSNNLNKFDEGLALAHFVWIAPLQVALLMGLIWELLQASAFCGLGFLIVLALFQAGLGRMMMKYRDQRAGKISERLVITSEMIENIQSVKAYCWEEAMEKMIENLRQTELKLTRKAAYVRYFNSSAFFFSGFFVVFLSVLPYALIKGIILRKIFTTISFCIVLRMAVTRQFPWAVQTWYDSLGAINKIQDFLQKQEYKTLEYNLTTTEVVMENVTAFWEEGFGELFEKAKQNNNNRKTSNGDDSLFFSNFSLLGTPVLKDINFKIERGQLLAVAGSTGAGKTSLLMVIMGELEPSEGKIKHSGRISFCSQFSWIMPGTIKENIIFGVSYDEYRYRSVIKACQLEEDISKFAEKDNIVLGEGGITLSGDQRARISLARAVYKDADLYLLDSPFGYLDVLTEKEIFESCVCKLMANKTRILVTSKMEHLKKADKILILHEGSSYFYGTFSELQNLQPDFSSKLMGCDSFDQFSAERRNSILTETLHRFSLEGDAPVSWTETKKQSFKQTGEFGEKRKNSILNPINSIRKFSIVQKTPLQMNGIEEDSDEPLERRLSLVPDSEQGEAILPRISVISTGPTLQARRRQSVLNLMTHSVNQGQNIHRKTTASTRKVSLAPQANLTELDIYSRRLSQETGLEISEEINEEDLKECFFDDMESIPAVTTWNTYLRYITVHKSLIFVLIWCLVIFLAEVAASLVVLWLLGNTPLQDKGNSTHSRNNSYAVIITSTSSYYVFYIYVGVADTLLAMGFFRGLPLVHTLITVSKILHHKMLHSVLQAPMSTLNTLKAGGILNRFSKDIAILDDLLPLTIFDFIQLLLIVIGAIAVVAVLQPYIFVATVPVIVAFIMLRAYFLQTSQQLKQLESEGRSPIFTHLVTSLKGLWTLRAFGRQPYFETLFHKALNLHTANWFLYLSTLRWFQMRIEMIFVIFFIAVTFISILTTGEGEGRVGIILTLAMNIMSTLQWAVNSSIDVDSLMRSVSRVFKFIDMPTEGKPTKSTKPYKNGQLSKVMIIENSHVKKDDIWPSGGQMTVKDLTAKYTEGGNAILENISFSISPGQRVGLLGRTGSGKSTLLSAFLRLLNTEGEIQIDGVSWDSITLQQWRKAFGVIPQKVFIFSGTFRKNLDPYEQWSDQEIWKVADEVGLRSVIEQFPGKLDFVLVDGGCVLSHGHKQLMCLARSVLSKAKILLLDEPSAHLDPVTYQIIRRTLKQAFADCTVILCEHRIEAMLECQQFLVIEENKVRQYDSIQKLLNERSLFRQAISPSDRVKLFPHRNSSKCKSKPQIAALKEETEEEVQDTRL
T2 sequence (P13569 with tags, fused parts or gaps DEL508-508): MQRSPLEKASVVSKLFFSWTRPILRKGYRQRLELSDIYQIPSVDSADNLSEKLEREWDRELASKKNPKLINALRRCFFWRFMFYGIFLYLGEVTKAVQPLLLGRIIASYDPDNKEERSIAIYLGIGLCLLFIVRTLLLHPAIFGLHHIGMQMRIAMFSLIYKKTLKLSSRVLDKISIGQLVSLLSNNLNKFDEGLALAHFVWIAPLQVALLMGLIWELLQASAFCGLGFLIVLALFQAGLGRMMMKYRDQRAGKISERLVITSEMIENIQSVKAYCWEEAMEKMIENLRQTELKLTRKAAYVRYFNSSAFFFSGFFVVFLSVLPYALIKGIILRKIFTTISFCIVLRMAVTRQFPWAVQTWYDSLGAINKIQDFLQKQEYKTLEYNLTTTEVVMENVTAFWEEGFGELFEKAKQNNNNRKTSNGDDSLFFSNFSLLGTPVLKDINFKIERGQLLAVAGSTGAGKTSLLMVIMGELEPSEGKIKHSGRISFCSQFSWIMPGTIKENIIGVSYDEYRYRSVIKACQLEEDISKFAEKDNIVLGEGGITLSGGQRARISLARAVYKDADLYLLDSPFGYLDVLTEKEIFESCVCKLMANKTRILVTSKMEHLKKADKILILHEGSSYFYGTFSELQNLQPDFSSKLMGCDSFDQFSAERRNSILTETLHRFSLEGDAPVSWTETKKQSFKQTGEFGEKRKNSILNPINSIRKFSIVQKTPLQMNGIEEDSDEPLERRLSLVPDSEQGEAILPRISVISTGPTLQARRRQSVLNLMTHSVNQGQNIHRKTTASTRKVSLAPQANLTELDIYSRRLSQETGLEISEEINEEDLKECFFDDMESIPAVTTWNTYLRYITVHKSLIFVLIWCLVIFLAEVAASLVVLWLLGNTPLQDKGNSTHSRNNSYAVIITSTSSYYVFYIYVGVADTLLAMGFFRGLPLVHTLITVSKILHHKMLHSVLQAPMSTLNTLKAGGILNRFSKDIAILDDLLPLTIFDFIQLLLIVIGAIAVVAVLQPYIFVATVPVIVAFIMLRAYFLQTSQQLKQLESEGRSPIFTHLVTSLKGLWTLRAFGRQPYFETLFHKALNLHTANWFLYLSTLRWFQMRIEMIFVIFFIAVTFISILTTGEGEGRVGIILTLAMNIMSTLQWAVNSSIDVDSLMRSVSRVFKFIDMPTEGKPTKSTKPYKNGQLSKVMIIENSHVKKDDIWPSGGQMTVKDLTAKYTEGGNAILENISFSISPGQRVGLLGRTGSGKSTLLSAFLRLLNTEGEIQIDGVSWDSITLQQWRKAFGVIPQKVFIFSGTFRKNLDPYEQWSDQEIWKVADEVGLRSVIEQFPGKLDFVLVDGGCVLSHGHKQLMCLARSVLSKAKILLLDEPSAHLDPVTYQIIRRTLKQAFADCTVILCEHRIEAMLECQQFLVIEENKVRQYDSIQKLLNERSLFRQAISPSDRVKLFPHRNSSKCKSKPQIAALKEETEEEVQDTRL

As a reminder, the EC50 is the concentration needed to bring the measured effect to its halfway point. With “2-[[(2S)-2-hydroxy-3-methyl- butanoyl]amino]-5-[4- (trifluoromethyl)phenyl] sulfonyl-thiophene-3- carboxamide [Compound 366]”, the EC50 was 458 nM on CFTR G551D mutant and 100 to 500 nM at CFTR G551D mutant (class symbol).

With “5-(4-chlorophenyl)sulfonyl-2- [[(2S)-2-hydroxy-3- methyl-butanoyl]amino] thiophene-3-carboxamide [Compound 367]”, the results for the EC50 on CFTR G551D mutant and at CFTR G551D mutant (class symbol) were 794 nM and 500 to 1000 nM, respectively.

For “5-(4-fluoro-2-(methoxymethyl) phenylsulfonyl)-2-(2-hydroxy- 2-methylpropanamido) thiophene-3-carboxamide [Compound 300]”, the values for the concentration for a half-maximal effect (EC50) on CFTR G551D mutant and on CFTR G551D mutant (class symbol) were 1760 nM and > 1000 nM, respectively.

In the case of “5-[[5-bromo-6- (trifluoromethyl)-3-pyridyl] sulfonyl]-2-[(2-hydroxy-2- methyl-propanoyl)amino] thiophene-3-carboxamide [Compound 441]”, the half-maximal effective concentration (EC50) on CFTR G551D mutant (class symbol) was > 1000 nM.

For the molecule `CC(O)C(=O)Nc1sc(S(=O)(=O)c2ccc(Cl)cc2)cc1C(N)=O` (single isomer, unassigned; enantiomer 1) [Compound 347], the figures for the EC50 at CFTR ΔF508 mutant and at CFTR G551D mutant were 19.1 nM and 1390 nM, respectively.

Consider `C[C@H](O)C(=O)Nc1sc(S(=O)(=O)c2ccc(F)cc2C(F)(F)F)cc1C(N)=O` (single isomer, unassigned; enantiomer 1) [Compound 348], for which the figures for the EC50 on CFTR ΔF508 mutant and at CFTR G551D mutant were 16.4 nM and 2550 nM, respectively.

For `CC(C)C(O)C(=O)Nc1sc(S(=O)(=O)c2ccc(F)cc2)cc1C(N)=O` (single isomer, unassigned; enantiomer 1) [Compound 352], the EC50 on CFTR ΔF508 mutant is 12.2 nM; at CFTR G551D mutant it was > 1340 nM; at CFTR G551D mutant (class symbol) it was > 1000 nM.

As for `CC(O)C(=O)Nc1sc(S(=O)(=O)c2ccc(F)cc2Cl)cc1C(N)=O` (single isomer, unassigned; enantiomer 1) [Compound 353], the values for the EC50 at CFTR ΔF508 mutant and on CFTR G551D mutant were 10.8 nM and 1720 nM, respectively.

Take `CC(O)C(=O)Nc1sc(S(=O)(=O)c2c(Cl)cc(F)cc2Cl)cc1C(N)=O` (single isomer, unassigned; enantiomer 1) [Compound 354]: the EC50 at CFTR G551D mutant came out at 1260 nM.

In the case of `CCc1ccccc1S(=O)(=O)c1cc(C(N)=O)c(NC(=O)C(C)O)s1` (centres unmarked) [Compound 312, 5-(2-Ethyl-benzenesulfonyl)-2-(2-hydroxy-propionylamino)-thiophene-3-carboxylic acid amide], the EC50 was 10.5 nM at CFTR ΔF508 mutant and 1820 nM at CFTR G551D mutant.

As for `CC(O)C(=O)Nc1sc(S(=O)(=O)c2c(F)cccc2F)cc1C(N)=O` (centres unmarked) [Compound 313, 5-(2,6-Difluoro-benzenesulfonyl)-2-(2-hydroxy-propionylamino)-thiophene-3-carboxylic acid amide], the EC50 at CFTR ΔF508 mutant is 38.3 nM; on CFTR G551D mutant, 2930 nM.

As to `C[C@H](O)C(=O)Nc1sc(S(=O)(=O)c2c(Cl)cccc2Cl)cc1C(N)=O` [Compound 314, 5-(2,6-Dichloro-benzenesulfonyl)-2-((S)-2-hydroxy-propionylamino)-thiophene-3-carboxylic acid amide], the EC50 on CFTR ΔF508 mutant was found to be 7.5 nM; at CFTR G551D mutant it was 458 nM.

Take `CC(C)Oc1ccc(S(=O)(=O)c2cc(C(N)=O)c(NC(=O)C(C)(C)O)s2)c(F)c1` [Compound 315, 5-(2-Fluoro-4-isopropoxy-benzenesulfonyl)-2-(2-hydroxy-2-methyl-propionylamino)-thiophene-3-carboxylic acid amide]: the EC50 at CFTR ΔF508 mutant came to 42.4 nM; at CFTR G551D mutant it was 828 nM.

Regarding `Cc1ccc(S(=O)(=O)c2cc(C(N)=O)c(NC(=O)C(C)(C)O)s2)cc1` [Compound 316, 2-(2-Hydroxy-2-methyl-propionylamino)-5-(toluene-4-sulfonyl)-thiophene-3-carboxylic acid amide], the EC50 on CFTR ΔF508 mutant was 31.1 nM; on CFTR G551D mutant, 1160 nM.

Turning to `CC(C)(O)C(=O)Nc1sc(S(=O)(=O)c2ncccc2Cl)cc1C(N)=O` [Compound 317, 5-(3-Chloro-pyridine-2-sulfonyl)-2-(2-hydroxy-2-methyl-propionylamino)-thiophene-3-carboxylic acid amide], the 50% effective concentration (EC50) at CFTR ΔF508 mutant was found to be 241 nM; at CFTR G551D mutant it was 3330 nM.

Take `CC(O)C(=O)Nc1sc(S(=O)(=O)c2ccc(OC(F)(F)F)cc2)cc1C(N)=O` (centres unmarked) [Compound 318, 2-(2-Hydroxy-propionylamino)-5-(4-trifluoromethoxy-benzenesulfonyl)-thiophene-3-carboxylic acid amide]: the EC50 on CFTR ΔF508 mutant came out at 20.2 nM; at CFTR G551D mutant, 716 nM.

As for `NC(=O)c1cc(S(=O)(=O)c2ccccc2OC(F)(F)F)sc1NC(=O)CO` [Compound 319, 2-(2-Hydroxy-acetylamino)-5-(2-trifluoromethoxy-benzensulfonyl)-thiophene-3-carboxylic acid amide], the EC50 on CFTR ΔF508 mutant was found to be 8.2 nM; on CFTR G551D mutant, 377 nM.

Take `CC(O)C(=O)Nc1sc(S(=O)(=O)c2ccccc2Cl)cc1C(N)=O` (centres unmarked) [Compound 321, 5-(2-Chloro-benzenesulfonyl)-2-(2-hydroxy-propionylamino)-thiophene-3-carboxylic acid amide]: the EC50 amounted to 12.3 nM on CFTR ΔF508 mutant and 1930 nM on CFTR G551D mutant.

`CC(C)Oc1ccc(S(=O)(=O)c2cc(C(N)=O)c(NC(=O)C(C)(C)O)s2)c(Cl)c1` [Compound 322, 5-(2-Chloro-4-isopropoxy-benzenesulfonyl)-2-(2-hydroxy-2-methyl-propionylamino)-thiophene-3-carboxylic acid amide]: the results for the half-maximal effective concentration (EC50) on CFTR ΔF508 mutant and at CFTR G551D mutant were 41.1 nM and 919 nM, respectively.

Regarding `CC(C)Oc1ccc(S(=O)(=O)c2cc(C(N)=O)c(NC(=O)C(C)(C)O)s2)c(C(F)(F)F)c1` [Compound 324, 2-(2-Hydroxy-2-methyl-propionylamino)-5-(4-isopropoxy-2-trifluoromethyl-benzenesulfonyl)-thiophene-3-carboxylic acid amide], the EC50 at CFTR ΔF508 mutant was determined as 84.2 nM; at CFTR G551D mutant it was 3160 nM.

For `Cc1ncccc1S(=O)(=O)c1cc(C(N)=O)c(NC(=O)C(C)O)s1` (centres unmarked) [Compound 326, 2-(2-hydroxypropanoylamino)-5-[(2-methyl-3-pyridyl)sulfonyl] thiophene-3-carboxamide], the results for the EC50 on CFTR ΔF508 mutant and at CFTR G551D mutant (class symbol) were 1060 nM and > 1000 nM, respectively.

As to `C[C@@H](O)C(=O)Nc1sc(S(=O)(=O)c2ccc(F)cc2)cc1C(N)=O` [Compound 327, 5-(4-fluorophenyl) sulfonyl-2-[[(2R)-2-hydroxypropanoyl]amino] thiophene-3-carboxamide], the 50% effective concentration (EC50) at CFTR ΔF508 mutant worked out at 134 nM; on CFTR G551D mutant, 3330 nM.

For `CC(O)C(=O)Nc1sc(S(=O)(=O)c2ccc(OC(F)(F)F)cc2Cl)cc1C(N)=O` (centres unmarked) [Compound 328, 5-[2-chloro-4-(trifluoromethoxy)phenyl] sulfonyl-2-(2-hydroxypropanoylamino) thiophene-3-carboxamide], the EC50 at CFTR ΔF508 mutant is 25.8 nM; on CFTR G551D mutant it was 427 nM.

For the molecule `CC(C)(O)C(=O)Nc1sc(S(=O)(=O)c2cccc3c2OC(F)(F)O3)cc1C(N)=O` [Compound 330, 5-[(2,2-difluoro-1,3-benzodioxol-4-yl)sulfonyl]-2-[(2-hydroxy-2-methyl-propanoyl)amino] thiophene-3-carboxamide], the EC50 on CFTR ΔF508 mutant stood at 5.3 nM; on CFTR G551D mutant, 62.2 nM.

On CFTR ΔF508 mutant, `C[C@H](O)C(=O)Nc1sc(S(=O)(=O)c2ccc(OC(F)(F)F)cc2F)cc1C(N)=O` [Compound 444, 5-[2-fluoro-4-(trifluoromethoxy)phenyl] sulfonyl-2-[[(2S)-2-hydroxypropanoyl]amino] thiophene-3-carboxamide] registered an EC50 of 19.6 nM.

In turn, `C[C@H](O)C(=O)Nc1sc(S(=O)(=O)c2ccc(C(F)(F)F)cc2F)cc1C(N)=O` [Compound 445, 5-[2-fluoro-4-(trifluoromethyl)phenyl] sulfonyl-2-[[(2S)-2-hydroxypropanoyl]amino] thiophene-3-carboxamide] displayed an EC50 at CFTR ΔF508 mutant of 19.6 nM.

Molecule `CC(C)(CO)C(=O)Nc1sc(S(=O)(=O)c2ccc(OC(F)(F)F)cc2)cc1C(N)=O` [Compound 446, 2-[(3-hydroxy-2,2-dimethyl-propanoyl)amino]-5-[4-(trifluoromethoxy)phenyl] sulfonyl-thiophene-3-carboxamide] came in with an EC50 at CFTR ΔF508 mutant of 41.3 nM.
